Results: article PMC5065625, “Structure-mechanism-based engineering of chemical regulators targeting distinct pathological factors in Alzheimer's disease” (Nature Communications, 2016)

Columns and labels:
Cu(II)–Aβ40/Aβ42 = test: Aβ aggregation inhibition/disaggregation experiments (gel/western blot, TEM), Cu(II); format: biochemical; conditions: Aβ 25 μM, compound 50 μM, 37 °C, 24 h; gel/western blot and TEM
Method: (§1) The ability of 1–4 to control the aggregation of both metal-free Aβ and metal-Aβ in inhibition (Fig. 2) and disaggregation experiments (Supplementary Fig. 1) was evaluated using the two major Aβ isoforms (Aβ40/Aβ42)[1][2][3][6][16] found in the AD-affected brain. Molecular weight (MW) distributions and morphologies of the resulting Aβ species were determined by gel electrophoresis followed by western blotting (gel/western blot) and transmission electron microscopy (TEM). Generally, under the experimental conditions employed herein, compound-free Aβ samples with and without metal ions assemble into a distribution of large aggregates that are too big to penetrate into the gel matrix, which yields very little smearing in the gel/western blots, but they can be visualized by TEM. The administration of compounds, able to interact with Aβ, inhibit the formation of high MW aggregates, and/or disassemble preformed aggregates, typically generates smaller-sized Aβ species that can enter into the gel and produce a substantial amount of streaking compared with the samples containing Aβ only.
Before experiments, Aβ40 or Aβ42 was dissolved in ammonium hydroxide (NH4OH; 1% v/v, aq). The resulting solution was aliquoted, lyophilized overnight and stored at −80 °C. A stock solution of Aβ was then prepared by dissolving lyophilized peptide in 1% NH4OH (10 μl) and diluting with ddH2O. The concentration of the solution was determined by measuring the absorbance of the solution at 280 nm (ɛ=1,450 M^–1 cm^–1 for Aβ40; ɛ=1,490 M^–1 cm^–1 for Aβ42). The peptide stock solution was diluted to a final concentration of 25 μM in Chelex-treated buffered solution containing HEPES ([…]; pH 6.6 for Cu(II) samples; pH 7.4 for metal-free and Zn(II) samples) and NaCl ([…]). For the inhibition studies, compounds (final concentration 50 μM, 1% v/v dimethyl sulfoxide (DMSO)) were added to the sample of Aβ (25 μM) in the absence and presence of a metal chloride salt (CuCl2 or ZnCl2; 25, 50, 100 or 125 μM) followed by incubation at 37 °C with constant agitation for 24 h. For the disaggregation studies, Aβ with and without a metal chloride salt was incubated for 24 h at 37 °C with constant agitation to generate preformed Aβ aggregates. The resulting samples were then treated with compounds (50 μM) and incubated with constant agitation for additional 24 h.
The Aβ samples from in vivo or in vitro experiments were analysed by gel electrophoresis followed by western blotting using an anti-Aβ antibody (6E10)[24][25][27][28][29]. Samples (10 μl) were separated on a 10–20% Tris-tricine gel (Invitrogen, Grand Island, NY, USA). […]

[1] = Parallel artificial membrane permeability assay adapted for BBB (PAMPA-BBB); format: in vitro ADME; conditions: 25 μM, pH 7.4, 4 h
Method: PAMPA-BBB experiments were conducted using the PAMPA Explorer kit (pION Inc., Billerica, MA, USA) using previously reported protocols. Compounds (25 μM, 200 μl) in pH 7.4 Prisma HT buffer (pION) were added to the wells of a donor plate (number of replicates=12). The polyvinylidene fluoride (PVDF, […]) filter membrane on the acceptor plate was coated with BBB-1 lipid formulation (5 μl, pION). The acceptor plate was placed on top of the donor plate. Brain sink buffer (BSB, 200 μl, pION) was added to each well of the acceptor plate and was incubated for 4 h at ambient temperature without stirring. UV–vis spectra of the solutions in the reference, acceptor, and donor plates were measured using a microplate reader. The PAMPA Explorer software v. 3.5 (pION) was used to calculate the −logPe values for compounds. CNS±designations were assigned by comparison with compounds that were identified in previous reports.

[2] = Stability in solution (UV–vis, ESI–MS), metal-free; format: physicochemical; conditions: for k, metal-free (rate of decay of the absorbance peak) / t1/2, metal-free / Stability in solution: 50 μM; for Stability in solution: metal-free, HEPES pH 7.4, 37 °C, 5 h
Method: The stability of 1–4 (50 μM) in the absence and presence of CuCl2 (25 μM) was monitored every 10 min using UV–vis for 5 h in buffer ([…], pH 7.4, […]; 1% DMSO) at 37 °C. The resulting spectra were corrected for baseline shifts at 800 nm and the half-life and rate of decay of the absorbance at 250, 385 and 400 nm for 4, [Cu(II)+1], and [Cu(II)+3], respectively, was calculated using the first-order exponential decay function as implemented in Origin 9.1 (OrginLab Corp., Northampton, MA, USA). Additionally, the species present were identified using ESI–MS. Samples containing 1–4 (50 μM) with or without CuCl2 (25 μM) were incubated in ddH2O (1% DMSO) at 37 °C for the selected time points before being freshly frozen using liquid nitrogen and stored at −80 °C until they were thawed immediately before measurement.

Zn(II)–Aβ40/Aβ42 = test: Aβ aggregation inhibition/disaggregation experiments (gel/western blot, TEM), Zn(II); format: biochemical; conditions: Aβ 25 μM, compound 50 μM, 37 °C, 24 h; gel/western blot and TEM
Method: as §1
Before experiments, Aβ40 or Aβ42 was dissolved in ammonium hydroxide (NH4OH; 1% v/v, aq). The resulting solution was aliquoted, lyophilized overnight and stored at −80 °C. A stock solution of Aβ was then prepared by dissolving lyophilized peptide in 1% NH4OH (10 μl) and diluting with ddH2O. The concentration of the solution was determined by measuring the absorbance of the solution at 280 nm (ɛ=1,450 M^–1 cm^–1 for Aβ40; ɛ=1,490 M^–1 cm^–1 for Aβ42). The peptide stock solution was diluted to a final concentration of 25 μM in Chelex-treated buffered solution containing HEPES ([…]; pH 6.6 for Cu(II) samples; pH 7.4 for metal-free and Zn(II) samples) and NaCl (150 μM). […]
The Aβ samples from in vivo or in vitro experiments were analysed by gel electrophoresis followed by western blotting using an anti-Aβ antibody (6E10)[24][25][27][28][29]. […]

[3] = HEPES pH 7.4, 150 μM NaCl, 37 °C
[4] = HEPES pH 7.4, 150 μM NaCl, 37 °C, absorbance peak decay

| SMILES | Modulation of Cu(II)-induced Aβ aggregation (Cu(II)–Aβ40/Aβ42) | −logPe [1] | k, metal-free (rate of decay of the absorbance peak) [2, 3] | t1/2, metal-free [2, 4] | Stability in solution [2] | Modulation of Zn(II)-induced Aβ aggregation (Zn(II)–Aβ40/Aβ42) | half-life at 50 μM ([2]; HEPES buffer, pH 7.4, 50 μM, HEPES pH 7.4, 150 μM NaCl, 37 °C, absorbance peak decay, read-out: t1/2, metal-free) [min] |
| --- | --- | --- | --- | --- | --- | --- | --- |
| COc1cc(NCc2ccccn2)cc(OC)c1 [compound 2, 3,5-dimethoxy-N-(pyridin-2-ylmethyl)aniline] | modulating activity at higher Cu(II) concentrations | 4.2(8) | too slow to accurately measure the rate | No noticeable spectral changes were observed over 5 h | stable over 5 h | – | – |
| Nc1ccc(NCc2ccccn2)cc1 [compound 1, N^1-(pyridin-2-ylmethyl)benzene-1,4-diamine] | redirect Cu(II)-promoted Aβ40 and Aβ42 aggregation | 5.0(1) | too slow to accurately measure the rate | No noticeable spectral changes were observed over 5 h | stable over 5 h | did not show any noticeable activity | – |
| CN(C)c1ccc(NCc2ccc[nH]2)cc1 [compound 4, N^1-((1H-pyrrol-2-yl)methyl)-N^4,N^4-dimethylbenzene-1,4-diamine] | redirect both Cu(II)- and Zn(II)-induced Aβ aggregation | 4.9(0) | 0.016 ± 0.004 min⁻¹ | ~40 min | unstable | redirect both Cu(II)- and Zn(II)-induced Aβ aggregation | 43 ± 5 |
| CN(C)c1ccc(NCc2ccc3ccccc3n2)cc1 [compound 3, N^1,N^1-dimethyl-N^4-(quinolin-2-ylmethyl)benzene-1,4-diamine] | modulates Aβ aggregation involved by both Cu(II) and Zn(II) | 4.2(2) | too slow to accurately measure the rate | No noticeable spectral changes were observed over 5 h | changes in its Ultraviolet-Visible (UV-vis) spectra after 5 h of incubation occurring at a very slow rate | modulates Aβ aggregation involved by both Cu(II) and Zn(II) | – |
